Source: the kinase profiling compilation of Christmann-Franck et al. (2016)

Columns and labels:
Assay in all cases: radiometric filter-binding kinase assay, Kinase HotSpot
Conditions in all cases: compound 0.5 µM; ATP 10 µM
[1] = biological target: RPS6KA4 KD2 (human) (UniProt O75676)
[2] = biological target: TGFBR1 (human) (UniProt P36897)
[3] = biological target: SGK2 (human) (UniProt Q9HBY8)
[4] = biological target: ACVR1 (human) (UniProt Q04771)
[5] = biological target: NEK1 (human) (UniProt Q96PY6)
[6] = biological target: RPS6KA1 KD1 KD2 (human) (UniProt Q15418)
[7] = biological target: IKBKB (human) (UniProt O14920)
[8] = biological target: DCLK2 (human) (UniProt Q8N568)
[9] = biological target: CSNK1G1 (human) (UniProt Q9HCP0)
[10] = biological target: SRMS (human) (UniProt Q9H3Y6)
[11] = biological target: BLK (human) (UniProt P51451)
[12] = biological target: PDGFRB (human) (UniProt P09619)
[13] = biological target: FGR (human) (UniProt P09769)
[14] = biological target: CDK9 CCNT1 (human) (UniProt P50750+O60563)
[15] = biological target: SRPK1 (human) (UniProt Q96SB4)
[16] = biological target: RPS6KA6 KD1 KD2 (human) (UniProt Q9UK32)
[17] = biological target: SRPK3 (human) (UniProt Q9UPE1)
[18] = biological target: CSNK2A1 (human) (UniProt P68400)
[19] = biological target: GRK5 (human) (UniProt P34947)
[20] = biological target: BRSK1 (human) (UniProt Q8TDC3)
[21] = biological target: CDK6 CCND1 (human) (UniProt Q00534+P24385)
[22] = biological target: CAMK1G (human) (UniProt Q96NX5)
[23] = biological target: ABL1 (human) (UniProt P00519)
[24] = biological target: CDK4 CCND3 (human) (UniProt P30281+P11802)
[25] = biological target: TXK (human) (UniProt P42681)
[26] = biological target: MAPK12 (human) (UniProt P53778)
[27] = biological target: ADRBK2 (human) (UniProt P35626)
[28] = biological target: NEK6 (human) (UniProt Q9HC98)
[29] = biological target: MAPKAPK5 (human) (UniProt Q8IW41)
[30] = biological target: TYRO3 (human) (UniProt Q06418)
[31] = biological target: STK3 (human) (UniProt Q13188)
[32] = biological target: AKT3 (human) (UniProt Q9Y243)
[33] = biological target: NEK4 (human) (UniProt P51957)
[34] = biological target: EPHA7 (human) (UniProt Q15375)
[35] = biological target: DYRK1B (human) (UniProt Q9Y463)
[36] = biological target: CDK1 CCNB1 (human) (UniProt P06493+P14635)
[37] = biological target: MAPK1 (human) (UniProt P28482)
[38] = biological target: DYRK4 (human) (UniProt Q9NR20)
[39] = biological target: EPHA5 (human) (UniProt P54756)
[40] = biological target: DAPK1 (human) (UniProt P53355)
[41] = biological target: PRKCH (human) (UniProt P24723)

Chain of NEK4 (human) (P51957 whole entry, looked up): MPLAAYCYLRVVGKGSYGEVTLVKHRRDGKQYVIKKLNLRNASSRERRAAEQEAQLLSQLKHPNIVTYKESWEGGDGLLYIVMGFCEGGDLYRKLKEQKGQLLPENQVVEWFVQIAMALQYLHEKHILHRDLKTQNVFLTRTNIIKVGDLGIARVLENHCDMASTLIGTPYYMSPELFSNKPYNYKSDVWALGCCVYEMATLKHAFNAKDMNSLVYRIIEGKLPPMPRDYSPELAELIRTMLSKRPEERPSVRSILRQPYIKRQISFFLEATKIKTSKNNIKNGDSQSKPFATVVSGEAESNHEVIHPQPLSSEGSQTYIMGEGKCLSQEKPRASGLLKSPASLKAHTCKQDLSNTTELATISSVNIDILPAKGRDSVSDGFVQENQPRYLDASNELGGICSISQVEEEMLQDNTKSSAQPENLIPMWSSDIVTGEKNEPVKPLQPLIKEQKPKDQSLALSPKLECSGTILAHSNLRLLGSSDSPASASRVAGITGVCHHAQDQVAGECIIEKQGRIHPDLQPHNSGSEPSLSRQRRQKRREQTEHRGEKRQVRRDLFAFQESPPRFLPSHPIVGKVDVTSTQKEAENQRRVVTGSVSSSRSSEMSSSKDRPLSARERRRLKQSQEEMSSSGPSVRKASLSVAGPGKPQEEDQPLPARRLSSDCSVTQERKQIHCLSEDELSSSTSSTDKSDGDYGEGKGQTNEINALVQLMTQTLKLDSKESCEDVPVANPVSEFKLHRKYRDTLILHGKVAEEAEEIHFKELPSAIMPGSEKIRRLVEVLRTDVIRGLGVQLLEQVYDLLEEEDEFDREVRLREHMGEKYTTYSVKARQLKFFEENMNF
Chain of RPS6KA4 KD2 (human) (O75676 whole entry, looked up): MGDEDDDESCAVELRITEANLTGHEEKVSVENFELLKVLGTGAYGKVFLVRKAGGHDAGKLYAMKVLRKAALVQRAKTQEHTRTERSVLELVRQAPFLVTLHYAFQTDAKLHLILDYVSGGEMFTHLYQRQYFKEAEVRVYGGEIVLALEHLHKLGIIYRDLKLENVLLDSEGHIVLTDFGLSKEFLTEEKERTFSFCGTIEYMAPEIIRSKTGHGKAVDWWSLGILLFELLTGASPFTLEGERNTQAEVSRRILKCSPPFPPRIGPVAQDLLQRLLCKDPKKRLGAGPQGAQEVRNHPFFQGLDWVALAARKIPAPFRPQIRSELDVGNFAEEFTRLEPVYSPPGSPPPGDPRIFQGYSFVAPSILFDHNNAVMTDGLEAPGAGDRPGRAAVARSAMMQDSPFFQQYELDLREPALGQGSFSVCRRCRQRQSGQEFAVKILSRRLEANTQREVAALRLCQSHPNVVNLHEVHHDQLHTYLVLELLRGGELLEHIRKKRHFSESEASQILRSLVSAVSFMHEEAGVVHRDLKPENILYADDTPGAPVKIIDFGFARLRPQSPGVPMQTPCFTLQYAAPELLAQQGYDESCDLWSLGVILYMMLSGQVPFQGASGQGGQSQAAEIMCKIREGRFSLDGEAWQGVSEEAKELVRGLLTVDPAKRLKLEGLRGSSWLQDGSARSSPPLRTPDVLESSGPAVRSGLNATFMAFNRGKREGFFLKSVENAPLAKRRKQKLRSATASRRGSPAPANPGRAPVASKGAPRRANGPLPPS
Chain of FGR (human) (P09769 whole entry, looked up): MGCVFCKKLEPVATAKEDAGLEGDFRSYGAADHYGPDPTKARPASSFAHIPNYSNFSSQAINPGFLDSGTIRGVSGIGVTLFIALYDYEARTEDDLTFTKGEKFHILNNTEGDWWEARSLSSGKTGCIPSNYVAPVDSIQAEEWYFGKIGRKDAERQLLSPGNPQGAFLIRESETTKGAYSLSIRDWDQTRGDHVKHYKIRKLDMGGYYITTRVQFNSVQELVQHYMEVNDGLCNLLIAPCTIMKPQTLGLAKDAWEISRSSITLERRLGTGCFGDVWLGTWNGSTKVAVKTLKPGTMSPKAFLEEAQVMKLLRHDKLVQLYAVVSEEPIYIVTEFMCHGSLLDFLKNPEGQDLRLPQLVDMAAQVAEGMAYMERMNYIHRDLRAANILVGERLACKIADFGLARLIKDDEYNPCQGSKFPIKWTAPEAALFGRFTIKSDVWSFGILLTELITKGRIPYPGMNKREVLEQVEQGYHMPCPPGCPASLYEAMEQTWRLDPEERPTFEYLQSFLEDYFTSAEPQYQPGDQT
Chain of SRPK3 (human) (Q9UPE1 whole entry, looked up): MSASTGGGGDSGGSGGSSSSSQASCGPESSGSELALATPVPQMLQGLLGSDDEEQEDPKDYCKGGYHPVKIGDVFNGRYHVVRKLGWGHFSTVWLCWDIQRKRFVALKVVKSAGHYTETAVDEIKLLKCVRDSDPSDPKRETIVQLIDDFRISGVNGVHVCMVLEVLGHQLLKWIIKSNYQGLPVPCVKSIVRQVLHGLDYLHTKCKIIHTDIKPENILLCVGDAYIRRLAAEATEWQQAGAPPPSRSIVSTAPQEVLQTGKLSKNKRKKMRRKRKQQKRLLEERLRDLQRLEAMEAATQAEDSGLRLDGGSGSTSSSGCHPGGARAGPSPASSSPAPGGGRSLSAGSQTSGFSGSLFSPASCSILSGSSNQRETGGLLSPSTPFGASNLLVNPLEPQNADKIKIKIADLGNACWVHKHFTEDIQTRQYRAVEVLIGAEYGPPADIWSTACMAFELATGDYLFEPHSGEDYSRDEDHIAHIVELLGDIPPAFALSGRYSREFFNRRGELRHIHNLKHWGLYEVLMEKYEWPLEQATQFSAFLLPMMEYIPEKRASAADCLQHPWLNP
Chain of CDK1 CCNB1 (human) (P06493 whole entry, looked up): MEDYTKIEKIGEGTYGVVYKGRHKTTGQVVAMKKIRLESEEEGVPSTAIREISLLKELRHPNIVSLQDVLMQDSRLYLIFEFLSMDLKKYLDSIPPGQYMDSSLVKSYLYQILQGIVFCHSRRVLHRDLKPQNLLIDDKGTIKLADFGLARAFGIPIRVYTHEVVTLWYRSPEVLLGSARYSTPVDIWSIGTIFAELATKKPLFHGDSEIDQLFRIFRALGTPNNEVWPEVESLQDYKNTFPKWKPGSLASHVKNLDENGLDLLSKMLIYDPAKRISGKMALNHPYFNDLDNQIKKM
Chain of CDK1 CCNB1 (human) (P14635 whole entry, looked up): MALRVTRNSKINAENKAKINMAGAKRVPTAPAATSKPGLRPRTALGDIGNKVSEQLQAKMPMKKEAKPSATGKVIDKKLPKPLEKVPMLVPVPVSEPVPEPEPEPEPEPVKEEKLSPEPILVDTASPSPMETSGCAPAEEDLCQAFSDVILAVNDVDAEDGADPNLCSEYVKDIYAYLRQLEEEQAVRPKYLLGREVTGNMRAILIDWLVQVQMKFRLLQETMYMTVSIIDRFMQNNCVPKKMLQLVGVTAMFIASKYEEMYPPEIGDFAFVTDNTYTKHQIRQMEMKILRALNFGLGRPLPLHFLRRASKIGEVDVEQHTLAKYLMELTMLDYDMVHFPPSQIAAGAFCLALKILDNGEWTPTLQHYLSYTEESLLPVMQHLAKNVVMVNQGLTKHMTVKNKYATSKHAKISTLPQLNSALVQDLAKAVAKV
Chain of DYRK4 (human) (Q9NR20 whole entry, looked up): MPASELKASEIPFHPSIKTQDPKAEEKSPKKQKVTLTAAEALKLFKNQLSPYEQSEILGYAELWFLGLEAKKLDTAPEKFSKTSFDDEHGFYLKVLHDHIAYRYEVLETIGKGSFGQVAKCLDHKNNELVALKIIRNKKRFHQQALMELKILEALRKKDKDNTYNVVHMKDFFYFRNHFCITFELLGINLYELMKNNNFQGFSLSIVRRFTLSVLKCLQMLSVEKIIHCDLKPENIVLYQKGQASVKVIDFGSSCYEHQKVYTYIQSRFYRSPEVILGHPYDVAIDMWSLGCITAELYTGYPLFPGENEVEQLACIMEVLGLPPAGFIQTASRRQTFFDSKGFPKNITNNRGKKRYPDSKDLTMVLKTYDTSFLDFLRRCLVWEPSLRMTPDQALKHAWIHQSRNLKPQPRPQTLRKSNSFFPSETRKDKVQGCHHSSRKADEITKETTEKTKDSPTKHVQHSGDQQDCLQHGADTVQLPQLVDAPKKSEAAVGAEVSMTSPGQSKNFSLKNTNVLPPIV
Chain of EPHA5 (human) (P54756 whole entry, looked up): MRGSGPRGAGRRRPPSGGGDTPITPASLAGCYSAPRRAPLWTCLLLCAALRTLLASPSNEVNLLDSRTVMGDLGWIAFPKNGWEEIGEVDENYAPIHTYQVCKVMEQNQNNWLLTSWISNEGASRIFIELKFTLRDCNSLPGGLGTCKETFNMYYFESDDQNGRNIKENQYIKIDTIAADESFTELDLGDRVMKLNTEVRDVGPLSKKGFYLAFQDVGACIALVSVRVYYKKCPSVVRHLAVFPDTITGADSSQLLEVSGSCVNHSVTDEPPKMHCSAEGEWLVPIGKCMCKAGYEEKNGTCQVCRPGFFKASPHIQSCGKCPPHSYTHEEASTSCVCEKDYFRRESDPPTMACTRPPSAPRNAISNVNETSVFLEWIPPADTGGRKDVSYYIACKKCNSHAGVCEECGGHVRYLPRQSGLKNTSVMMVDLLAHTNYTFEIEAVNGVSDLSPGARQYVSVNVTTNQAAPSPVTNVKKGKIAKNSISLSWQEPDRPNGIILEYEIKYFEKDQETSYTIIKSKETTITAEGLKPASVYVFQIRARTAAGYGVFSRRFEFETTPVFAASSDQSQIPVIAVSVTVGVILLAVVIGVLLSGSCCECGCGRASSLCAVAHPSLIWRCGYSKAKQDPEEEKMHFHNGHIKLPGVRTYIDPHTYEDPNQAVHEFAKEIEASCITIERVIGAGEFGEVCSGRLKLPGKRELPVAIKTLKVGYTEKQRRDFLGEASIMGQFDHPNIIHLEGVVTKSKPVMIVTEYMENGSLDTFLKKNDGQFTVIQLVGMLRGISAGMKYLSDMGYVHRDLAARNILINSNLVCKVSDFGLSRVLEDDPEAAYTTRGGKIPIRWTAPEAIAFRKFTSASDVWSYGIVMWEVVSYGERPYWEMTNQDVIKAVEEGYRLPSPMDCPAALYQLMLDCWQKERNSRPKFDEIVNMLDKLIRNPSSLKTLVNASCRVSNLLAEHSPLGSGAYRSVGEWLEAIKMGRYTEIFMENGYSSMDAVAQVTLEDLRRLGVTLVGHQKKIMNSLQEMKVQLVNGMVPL

SMILES: Cc1nc2cc3nc(-c4cccs4)cnc3cc2n1C
- residual activity [1]: 88.4%
- residual activity [2]: 98.7%
- residual activity [3]: 115%
- residual activity [4]: 99.3%
- residual activity [5]: 94%
- residual activity [6]: 99.4%
- residual activity [7]: 103%
- residual activity [8]: 104%
- residual activity [9]: 92.2%
- residual activity [10]: 95.4%
- residual activity [11]: 99.8%
- residual activity [12]: 63.3%
- residual activity [13]: 89.3%
- residual activity [14]: 88.3%
- residual activity [15]: 107%
- residual activity [16]: 88.5%
- residual activity [17]: 96.6%
- residual activity [18]: 101%
- residual activity [19]: 108%
- residual activity [20]: 98.7%
- residual activity [21]: 99.3%
- residual activity [22]: 106%
- residual activity [23]: 80.4%
- residual activity [24]: 101%
- residual activity [25]: 102%
- residual activity [26]: 103%
- residual activity [27]: 99.2%
- residual activity [28]: 99.2%
- residual activity [29]: 100%
- residual activity [30]: 103%
- residual activity [31]: 97.1%
- residual activity [32]: 112%
- residual activity [33]: 95.2%
- residual activity [34]: 92.5%
- residual activity [35]: 102%
- residual activity [36]: 96.7%
- residual activity [37]: 110%
- residual activity [38]: 104%
- residual activity [39]: 105%
- residual activity [40]: 99.5%
- residual activity [41]: 96.8%

SMILES: O=C(CCCc1ccc(-c2ccccc2F)cc1)Nc1ccc(O)cc1
- residual activity [1]: 103%
- residual activity [2]: 102%
- residual activity [3]: 101%
- residual activity [4]: 95.2%
- residual activity [5]: 100%
- residual activity [6]: 102%
- residual activity [7]: 101%
- residual activity [8]: 96.1%
- residual activity [9]: 104%
- residual activity [10]: 101%
- residual activity [11]: 101%
- residual activity [12]: 98.2%
- residual activity [13]: 96%
- residual activity [14]: 103%
- residual activity [15]: 98.6%
- residual activity [16]: 105%
- residual activity [17]: 93.7%
- residual activity [18]: 89.4%
- residual activity [19]: 98.4%
- residual activity [20]: 103%
- residual activity [21]: 98.2%
- residual activity [22]: 96.8%
- residual activity [23]: 101%
- residual activity [24]: 110%
- residual activity [25]: 97.7%
- residual activity [26]: 104%
- residual activity [27]: 100%
- residual activity [28]: 99.4%
- residual activity [29]: 91.4%
- residual activity [30]: 98.2%
- residual activity [31]: 94.8%
- residual activity [32]: 111%
- residual activity [33]: 103%
- residual activity [34]: 104%
- residual activity [35]: 108%
- residual activity [36]: 102%
- residual activity [37]: 69.9%
- residual activity [38]: 97.4%
- residual activity [39]: 99%
- residual activity [40]: 110%
- residual activity [41]: 84%

SMILES: CCN(CC)CCCCN1c2ccccc2Oc2ccc(Cl)cc21
- residual activity [1]: 80.8%
- residual activity [2]: 97.2%
- residual activity [3]: 105%
- residual activity [4]: 101%
- residual activity [5]: 101%
- residual activity [6]: 97.5%
- residual activity [7]: 96.6%
- residual activity [8]: 101%
- residual activity [9]: 104%
- residual activity [10]: 105%
- residual activity [11]: 106%
- residual activity [12]: 103%
- residual activity [13]: 101%
- residual activity [14]: 101%
- residual activity [15]: 97.2%
- residual activity [16]: 109%
- residual activity [17]: 104%
- residual activity [18]: 96.2%
- residual activity [19]: 103%
- residual activity [20]: 98.3%
- residual activity [21]: 98%
- residual activity [22]: 99.2%
- residual activity [23]: 107%
- residual activity [24]: 102%
- residual activity [25]: 101%
- residual activity [26]: 97.4%
- residual activity [27]: 87.5%
- residual activity [28]: 107%
- residual activity [29]: 95.9%
- residual activity [30]: 103%
- residual activity [31]: 106%
- residual activity [32]: 103%
- residual activity [33]: 110%
- residual activity [34]: 102%
- residual activity [35]: 101%
- residual activity [36]: 96.8%
- residual activity [37]: 84.7%
- residual activity [38]: 100%
- residual activity [39]: 109%
- residual activity [40]: 76.6%
- residual activity [41]: 108%
